Assay results published in patent publication US20060216336A1, “Transdermal therapeutic system for Parkinson's Disease” (priority 2002, published 2006).

Assay: Multiple dose trial with rotating patch application sites in early-stage Parkinson's disease: rotigotine pharmacokinetics (Example 4)
Conditions: human, in vivo; for concentration at […]: 23.5 H
Source text: Each day, a fresh patch was placed on a new skin site (abdomen, flank, upper arm, shoulder, thigh, hip) in a rotating order. The silicone transdermal patches were made in accordance with the teachings of U.S. Patent Application Publication No. US 2003/0026830 at paragraphs 38-42, U.S. Patent Application Publication No. US 2003/0027793 at paragraphs 37-41 and U.S. Pat. No. 6,884,434, columns 5-6, Example 2 and comprised the following layers and components:
The trial consisted of an Eligibility Assessment (EA), a 24-day Titration Phase (4.5 to 18.0 mg/day doses; incremental increases of 4.5mg/day every 6 days), a 6-day Maintenance Phase (18.0 mg/day dose), a 6-day De-escalation Phase (13.5/9.0/4.5mg/day decreasing dose every 2 days), and a Safety Follow-Up visit 2 days following the last dose.
The silicone transdermal patches were made in accordance with the teachings of U.S. Patent Application Publication No. US 2003/0026830 at paragraphs 3842 and U.S. Patent Application Publication No. US 2003/0027793 at paragraphs 3741 comprised the following layers and components as disclosed above
The 18.0 mg/day dose used 2×20 cm^2 patches. Initial doses were 4.5 mg/day with weekly increases of 4.5 mg/day to a maximum target dose of 18.0 mg/day.

[1] = rotigotine plasma concentration Geo. Mean
[2] = rotigotine plasma concentration Max
[3] = rotigotine plasma concentration Mean
[4] = rotigotine plasma concentration Median
[5] = rotigotine plasma concentrations, Geo. Mean
[6] = rotigotine plasma concentrations, Mean
[7] = rotigotine plasma concentrations, Median

In the case of CCCN(CCc1cccs1)[C@H]1CCc2c(O)cccc2C1 [rotigotine, (6S)-6{propyl[2-(2-thienyl)ethyl]amino}-5,6,7,8-tetrahydro-1-naphthalenol], the concentration at […] (18 mg/day, rotigotine plasma concentration Min, Thigh, Days 27 & 30 Combined) was 0.152 ng/mL, the concentration at […] (18 mg/day, rotigotine plasma concentration Min, Upper Arm, Day 27) was 0.129 ng/mL and the concentration at […] (18 mg/day, rotigotine plasma concentration Min, Upper Arm, Day 30) was 0.347 ng/mL. For the same compound, the concentration at […] (18 mg/day, rotigotine plasma concentration Min, Upper Arm, Days 27 & 30 Combined) was 0.129 ng/mL, the concentration at […] (18 mg/day, rotigotine plasma concentrations, Geo. Mean, Application Site = Abdomen, Day 27) was 0.806 ng/mL and the concentration at […] (18 mg/day, rotigotine plasma concentrations, Geo. Mean, Application Site = Abdomen, Day 30) was 0.545 ng/mL. The concentration at […] (18 mg/day, rotigotine plasma concentrations, Geo. Mean, Application Site = Abdomen, Days 27 & 30 Combined) was 0.676 ng/mL, the concentration at 7 h (18 mg/day, rotigotine plasma concentrations, Geo. Mean, Application Site = Flank, Days 27 & 30 Combined, 7 H) was 0.681 ng/mL and the concentration at […] (18 mg/day, rotigotine plasma concentrations, Geo. Mean, Application Site = Flank, Days 27 & 30 Combined) was 0.81 ng/mL. For the same compound, the concentration at […] (18 mg/day, rotigotine plasma concentrations, Mean, Application Site = Abdomen, Day 27) was 0.929 ng/mL, the concentration at […] (18 mg/day, rotigotine plasma concentrations, Mean, Application Site = Abdomen, Day 30) was 0.613 ng/mL and the concentration at […] (18 mg/day, rotigotine plasma concentrations, Mean, Application Site = Abdomen, Days 27 & 30 Combined) was 0.787 ng/mL. It also gave a concentration at […] (18 mg/day, rotigotine plasma concentrations, Mean, Application Site = Flank, Days 27 & 30 Combined) of 1.1 ng/mL, a concentration at […] (18 mg/day, rotigotine plasma concentrations, Median, Application Site = Abdomen, Day 30) of 0.415 ng/mL and a concentration at […] (18 mg/day, rotigotine plasma concentrations, Median, Application Site = Abdomen, Days 27 & 30 Combined) of 0.677 ng/mL. It also gave a concentration at […] (18 mg/day, rotigotine plasma concentrations, Median, Application Site = Flank, Days 27 & 30 Combined) of 0.714 ng/mL, an AUC(0-t) (AUC 0-t, ss) of 23.8 ng·h/mL and a concentration at 27 day (Average Concentration) of 0.882 ng/mL. It also gave a concentration at 30 day (Average Concentration) of 0.975 ng/mL, a concentration at 5 h [1] of 0.971 ng/mL and a concentration at 6 h [1] of 0.837 ng/mL. For the same compound, the concentration at 7 h [1] was 0.993 ng/mL, the concentration at 14 h [1] was 1.15 ng/mL and the concentration at 16 h [1] was 1.15 ng/mL. It also gave a concentration at 18 h [1] of 1.16 ng/mL, a concentration at 20 h [1] of 1.14 ng/mL and a concentration at 22 h [1] of 0.815 ng/mL. For the same compound, the concentration at 10 h [2] was 1.98 ng/mL, the concentration at 16 h [2] was 2.53 ng/mL and the concentration at 18 h [2] was 3.25 ng/mL. The concentration at 22 h [2] was 1.77 ng/mL, the concentration at 6 h [3] was 0.911 ng/mL and the concentration at 7 h [3] was 1.08 ng/mL. For the same compound, the concentration at 10 h [3] was 1.17 ng/mL, the concentration at 14 h [3] was 1.26 ng/mL and the concentration at 16 h [3] was 1.28 ng/mL. It also gave a concentration at 18 h [3] of 1.32 ng/mL, a concentration at 20 h [3] of 1.4 ng/mL and a concentration at 22 h [3] of 0.904 ng/mL. The concentration at 5 h [4] was 0.956 ng/mL, the concentration at 14 h [4] was 1.21 ng/mL and the concentration at 16 h [4] was 1.06 ng/mL. It also gave a concentration at 18 h [4] of 1.17 ng/mL, a concentration at 20 h [4] of 1.04 ng/mL and a concentration at 22 h [4] of 0.734 ng/mL. It also gave a concentration at 10 h [5] of 0.816 ng/mL, a concentration at 12 h [5] of 0.848 ng/mL and a concentration at 14 h [5] of 0.84 ng/mL. The concentration at 16 h [5] was 1 ng/mL, the concentration at 18 h [5] was 1.01 ng/mL and the concentration at 20 h [5] was 1.02 ng/mL. The concentration at 22 h [5] was 0.91 ng/mL, the concentration at 10 h [6] was 0.909 ng/mL and the concentration at 12 h [6] was 0.911 ng/mL. For the same compound, the concentration at 14 h [6] was 0.931 ng/mL, the concentration at 16 h [6] was 1.07 ng/mL and the concentration at 18 h [6] was 1.06 ng/mL. It also gave a concentration at 20 h [6] of 1.08 ng/mL, a concentration at 22 h [6] of 1.01 ng/mL and a concentration at 10 h [7] of 0.766 ng/mL. For the same compound, the concentration at 12 h [7] was 0.763 ng/mL, the concentration at 14 h [7] was 0.816 ng/mL and the concentration at 16 h [7] was 0.904 ng/mL. It also gave a concentration at 18 h [7] of 1.08 ng/mL, a concentration at 20 h [7] of 0.962 ng/mL and a concentration at 22 h [7] of 0.804 ng/mL.
